# Assay results as given in patent publication US20250282785A1, “PYRROLIDINONE DERIVATIVES AS INHIBITORS OF NF KAPPA B INDUCING KINASE” (priority 2022, published 2025).
# pIC50: −log10 of the molar value.
# Key:
# [1] = test system: p-IKKα levels in L363 (NIK translocated multiple myeloma) cells; experiment: Effect of compounds on p-IKKα levels in L363 cells (AlphaLISA SureFire Ultra); format: cell-based; conditions: Homo sapiens, L-363; L363 cells, BAFF stimulated, MG132, 6 h; average of values; read-out: Assay 2 IC50
# How it was run: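 L363 myeloma cells were BAFF-stimulated (250 ng/ml) overnight in DMEM/0.5% BSA, then exposed 6 h at 37° C to compound (11-point 1:3 series, 0.3% DMSO) with BAFF plus 10 uM MG132. p-IKKα (Ser 176/180) was read by AlphaLISA SureFire Ultra in lysates. IC50 came from sigmoidal fits normalized to stimulated and unstimulated controls.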
# [2] = target: Recombinant Human NF-Kappab-Inducing Kinase (NIK/MAP3K14) (Homo sapiens, UniProt Q99558); experiment: Inhibition of auto-phosphorylation of recombinant human NIK/MAP3K14 (AlphaScreen); format: biochemical; conditions: NIK/MAP3K14 auto-phosphorylation, 5 microM ATP, 1 nM enzyme, 2 h at 25° C.; average of values; read-out: Assay 1 IC50
# How it was run: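 GST-tagged NIK (1 nM) auto-phosphorylation with 5 µM ATP in Tris pH 7.5/MgCl2 buffer, 0.7% DMSO, 2 h at 25 °C. Phospho-IKK Ser176/180 antibody detected by AlphaScreen beads. Signal normalized to full-enzyme and no-ATP controls; IC50 from sigmoidal fit of % inhibition vs log concentration.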
# Chain of Recombinant Human NF-Kappab-Inducing Kinase (NIK/MAP3K14) (Q99558 whole entry): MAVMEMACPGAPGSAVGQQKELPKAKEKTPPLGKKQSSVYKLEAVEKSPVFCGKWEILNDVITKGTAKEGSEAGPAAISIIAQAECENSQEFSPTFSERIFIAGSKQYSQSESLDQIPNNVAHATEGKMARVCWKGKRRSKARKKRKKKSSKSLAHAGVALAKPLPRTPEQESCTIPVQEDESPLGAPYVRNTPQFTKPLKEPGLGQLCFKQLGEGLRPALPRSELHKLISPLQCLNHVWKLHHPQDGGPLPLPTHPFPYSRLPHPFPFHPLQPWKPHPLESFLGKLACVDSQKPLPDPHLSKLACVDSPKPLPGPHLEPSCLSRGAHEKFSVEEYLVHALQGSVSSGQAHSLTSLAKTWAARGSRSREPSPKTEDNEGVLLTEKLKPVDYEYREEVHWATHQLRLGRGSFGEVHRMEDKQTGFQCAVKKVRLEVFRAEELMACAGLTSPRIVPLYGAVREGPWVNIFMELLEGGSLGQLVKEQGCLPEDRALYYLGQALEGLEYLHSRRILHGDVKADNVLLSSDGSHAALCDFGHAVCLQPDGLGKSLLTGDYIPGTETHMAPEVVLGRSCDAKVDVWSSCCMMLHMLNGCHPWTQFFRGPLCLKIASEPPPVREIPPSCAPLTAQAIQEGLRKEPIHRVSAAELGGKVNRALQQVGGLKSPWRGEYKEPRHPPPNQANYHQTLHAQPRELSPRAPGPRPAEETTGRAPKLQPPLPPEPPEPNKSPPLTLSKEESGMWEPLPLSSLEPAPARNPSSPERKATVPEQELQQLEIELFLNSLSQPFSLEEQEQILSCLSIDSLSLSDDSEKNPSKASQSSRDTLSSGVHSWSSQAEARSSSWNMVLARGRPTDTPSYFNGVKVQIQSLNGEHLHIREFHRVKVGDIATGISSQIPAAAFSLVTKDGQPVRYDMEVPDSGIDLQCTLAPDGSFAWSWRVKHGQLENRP
Structure (SMILES),pIC50 [1],pIC50 [2]
"Cc1nc(-c2cc(-c3cc([C@@]4(O)C(=O)N(C)CC4(F)F)on3)cc(F)c2F)nc2c(N)ncnc12 [Example 123, (R)-3-(3-(3-(8-amino-4-methylpyrimido[5,4-d]pyrimidin-2-yl)-4,5-difluorophenyl)isoxazol-5-yl)-4,4-difluoro-3-hydroxy-1-methylpyrrolidin-2-one]",6.30 to 7.00,> 7.00
"CN1CC[C@@](O)(c2cc(-c3cccc(-c4cc5c(c(C(N)=O)n4)CCCC5)c3)no2)C1=O [Example 124, (R)-3-(3-(5-(3-Hydroxy-1-methyl-2-oxopyrrolidin-3-yl)isoxazol-3-yl)phenyl)-5,6,7,8-tetrahydroisoquinoline-1-carboxamide]",< 6.30,> 7.00
"CN1CC[C@@](O)(c2cc(-c3cccc(-c4nc5c(c(C(N)=O)n4)CCCC5)c3)no2)C1=O [Example 125, (R)-2-(3-(5-(3-Hydroxy-1-methyl-2-oxopyrrolidin-3-yl)isoxazol-3-yl)phenyl)-5,6,7,8-tetrahydroquinazoline-4-carboxamide]",< 6.30,> 7.00
"CN1CC[C@@](O)(c2cc(-c3cccc(-c4ncc(N)c(C(=O)N[C@H]5CCOC5)n4)c3)no2)C1=O [Example 126, 5-Amino-2-(3-(5-((R)-3-hydroxy-1-methyl-2-oxopyrrolidin-3-yl)isoxazol-3-yl)phenyl)-N—((S)-tetrahydrofuran-3-yl)pyrimidine-4-carboxamide]",< 6.30,> 7.00
"CN1CC[C@@](O)(c2cc(-c3cccc(-c4ncc(N[C@H]5CCOC5)c(C(N)=O)n4)c3)no2)C1=O [Example 127, 2-(3-(5-((R)-3-hydroxy-1-methyl-2-oxopyrrolidin-3-yl)isoxazol-3-yl)phenyl)-5-(((S)-tetrahydrofuran-3-yl)amino)pyrimidine-4-carboxamide]",> 7.00,> 7.00
"CN1CC[C@@](O)(c2cc(-c3cccc(-c4ncc(N)c(C(=O)N[C@@H]5CCOC5)n4)c3)no2)C1=O [Example 128, 5-Amino-2-(3-(5-((R)-3-hydroxy-1-methyl-2-oxopyrrolidin-3-yl)isoxazol-3-yl)phenyl)-N—((R)-tetrahydrofuran-3-yl)pyrimidine-4-carboxamide]",< 6.30,> 7.00
"CN1CC[C@@](O)(c2cc(-c3cccc(-c4ncc(N[C@@H]5CCOC5)c(C(N)=O)n4)c3)no2)C1=O [Example 129, 2-(3-(5-((R)-3-hydroxy-1-methyl-2-oxopyrrolidin-3-yl)isoxazol-3-yl)phenyl)-5-(((R)-tetrahydrofuran-3-yl)amino)pyrimidine-4-carboxamide]",> 7.00,> 7.00
"CN1CC[C@@](O)(c2cc(-c3cccc(-c4ncc(Nc5ccn(C)n5)c(C(N)=O)n4)c3)no2)C1=O [Example 130, (R)-2-(3-(5-(3-Hydroxy-1-methyl-2-oxopyrrolidin-3-yl)isoxazol-3-yl)phenyl)-5-((1-methyl-1H-pyrazol-3-yl)amino)pyrimidine-4-carboxamide]",> 7.00,> 7.00
"CN1CC[C@@](O)(c2cc(-c3cccc(-c4cc(N[C@H]5CCOC5)cc(C(N)=O)n4)c3)no2)C1=O [Example 131, 6-(3-(5-((R)-3-Hydroxy-1-methyl-2-oxopyrrolidin-3-yl)isoxazol-3-yl)phenyl)-4-(((S)-tetrahydrofuran-3-yl)amino)picolinamide]",< 6.30,< 6.30
"CN1CC[C@@](O)(c2cc(-c3cccc(-c4nc(C(N)=O)c(N)c(C5CC5)n4)c3)no2)C1=O [Example 132, (R)-5-Amino-6-cyclopropyl-2-(3-(5-(3-hydroxy-1-methyl-2-oxopyrrolidin-3-yl)isoxazol-3-yl)phenyl)pyrimidine-4-carboxamide]",> 7.00,> 7.00
"CN1CC[C@@](O)(c2cc(-c3cccc(-c4nc(Nc5ccn(C)n5)c(C(F)(F)F)c(C(N)=O)n4)c3)no2)C1=O [Example 133, (R)-2-(3-(5-(3-Hydroxy-1-methyl-2-oxopyrrolidin-3-yl)isoxazol-3-yl)phenyl)-6-((1-methyl-1H-pyrazol-3-yl)amino)-5-(trifluoromethyl)pyrimidine-4-carboxamide]",< 6.30,> 7.00
"CN1CC[C@@](O)(c2cc(-c3cccc(-c4nc(C(N)=O)c5[nH]ccc5n4)c3)no2)C1=O [Example 134, (R)-2-(3-(5-(3-Hydroxy-1-methyl-2-oxopyrrolidin-3-yl)isoxazol-3-yl)phenyl)-5H-pyrrolo[3,2-d]pyrimidine-4-carboxamide]",> 7.00,> 7.00
"CN1CC[C@@](O)(c2cc(-c3cccc(-c4ncc(N)c(C(N)=O)n4)c3)no2)C1=O [Example 135, (R)-5-Amino-2-(3-(5-(3-Hydroxy-1-methyl-2-oxopyrrolidin-3-yl)isoxazol-3-yl)phenyl)pyrimidine-4-carboxamide]",> 7.00,> 7.00
"COc1nc(-c2cccc(-c3cc([C@]4(O)CCN(C)C4=O)on3)c2)nc(OC)c1N [Example 136, (R)-3-(3-(3-(5-Amino-4,6-dimethoxypyrimidin-2-yl)phenyl)isoxazol-5-yl)-3-hydroxy-1-methylpyrrolidin-2-one]",< 6.30,6.30 to 7.00
"CN1CC[C@@](O)(c2cc(-c3cccc(-c4ncc(Nc5cnn(C)c5)c(C(N)=O)n4)c3)no2)C1=O [Example 137, (R)-2-(3-(5-(3-Hydroxy-1-methyl-2-oxopyrrolidin-3-yl)isoxazol-3-yl)phenyl)-5-((1-methyl-1H-pyrazol-4-yl)amino)pyrimidine-4-carboxamide]",> 7.00,> 7.00
"COc1ncc(-c2cccc(-c3cc([C@]4(O)CCN(C)C4=O)on3)c2)c(C(N)=O)n1 [Example 138, (R)-5-(3-(5-(3-Hydroxy-1-methyl-2-oxopyrrolidin-3-yl)isoxazol-3-yl)phenyl)-2-methoxypyrimidine-4-carboxamide]",< 6.30,< 6.30
"CN1CC[C@@](O)(c2cc(-c3cccc(-c4cc5cc[nH]c5c(C(N)=O)n4)c3)no2)C1=O [Example 139, (R)-5-(3-(5-(3-Hydroxy-1-methyl-2-oxopyrrolidin-3-yl)isoxazol-3-yl)phenyl)-1H-pyrrolo[2,3-c]pyridine-7-carboxamide]",> 7.00,> 7.00
"CN1CC(F)(F)[C@@](O)(c2cc(-c3ccc(F)c(-c4nc(C(N)=O)c5[nH]ccc5n4)c3)no2)C1=O [Example 140, (R)-2-(5-(5-(4,4-Difluoro-3-hydroxy-1-methyl-2-oxopyrrolidin-3-yl)isoxazol-3-yl)-2-fluorophenyl)-5H-pyrrolo[3,2-d]pyrimidine-4-carboxamide]",> 7.00,> 7.00
"CN1CC[C@@](O)(c2cc(-c3cccc(-c4ncc(Nc5cn[nH]c5)c(C(N)=O)n4)c3)no2)C1=O [Example 141, (R)-5-((1H-Pyrazol-4-yl)amino)-2-(3-(5-(3-hydroxy-1-methyl-2-oxopyrrolidin-3-yl)isoxazol-3-yl)phenyl)pyrimidine-4-carboxamide]",> 7.00,> 7.00
"Cc1n[nH]c(C)c1Nc1cnc(-c2cccc(-c3cc([C@]4(O)CCN(C)C4=O)on3)c2)nc1C(N)=O [Example 142, (R)-5-((3,5-Dimethyl-1H-pyrazol-4-yl)amino)-2-(3-(5-(3-hydroxy-1-methyl-2-oxopyrrolidin-3-yl)isoxazol-3-yl)phenyl)pyrimidine-4-carboxamide]",6.30 to 7.00,> 7.00
"CN1CC[C@@](O)(c2cc(-c3cccc(-c4cc5cn[nH]c5c(C(N)=O)n4)c3)no2)C1=O [Example 143, (R)-5-(3-(5-(3-hydroxy-1-methyl-2-oxopyrrolidin-3-yl)isoxazol-3-yl)phenyl)-1H-pyrazolo[3,4-c]pyridine-7-carboxamide]",> 7.00,> 7.00
"COc1cn(C)nc1Nc1cnc(-c2cccc(-c3cc([C@]4(O)CCN(C)C4=O)on3)c2)nc1C(N)=O [Example 144, (R)-2-(3-(5-(3-Hydroxy-1-methyl-2-oxopyrrolidin-3-yl)isoxazol-3-yl)phenyl)-5-((4-methoxy-1-methyl-1H-pyrazol-3-yl)amino)pyrimidine-4-carboxamide]",> 7.00,> 7.00
"CN1CC[C@@](O)(c2cc(-c3cccc(-c4ncc(Nc5cnn(CC(F)(F)F)c5)c(C(N)=O)n4)c3)no2)C1=O [Example 145, (R)-2-(3-(5-(3-Hydroxy-1-methyl-2-oxopyrrolidin-3-yl)isoxazol-3-yl)phenyl)-5-((1-(2,2,2-trifluoroethyl)-1H-pyrazol-4-yl)amino)pyrimidine-4-carboxamide]",> 7.00,> 7.00
"CN1CC[C@@](O)(c2cc(-c3cccc(-c4nccc(C(N)=O)n4)c3)no2)C1=O [Example 146, (R)-2-(3-(5-(3-hydroxy-1-methyl-2-oxopyrrolidin-3-yl)isoxazol-3-yl)phenyl)pyrimidine-4-carboxamide]",< 6.30,> 7.00
"CN1CC[C@@](O)(c2cc(-c3cccc(-c4cncc(C(N)=O)n4)c3)no2)C1=O [Example 147, (R)-6-(3-(5-(3-Hydroxy-1-methyl-2-oxopyrrolidin-3-yl)isoxazol-3-yl)phenyl)pyrazine-2-carboxamide]",< 6.30,> 7.00
"CN1CC[C@@](O)(c2cc(-c3cccc(-c4cccc(C(N)=O)n4)c3)no2)C1=O [Example 148, (R)-6-(3-(5-(3-Hydroxy-1-methyl-2-oxopyrrolidin-3-yl)isoxazol-3-yl)phenyl)picolinamide]",< 6.30,> 7.00
